Values of other authors, collected in US20260198506A1, “Broad-Spectrum Organic Fungicide & Bactericide” (Ecolution.AG LLC, priority 2020, published 2026).

Test system: Gram-positive bacteria
Conditions: due to outer cell membrane impermeability of Gram-negatives

For `O=C(O)C1=C[C@@H](O)[C@@H](O)[C@H](O)C1` [shikimic acid], the antibacterial activity spectrum is listed as “active only against Gram-positive bacteria”.
